Results taken from patent US20200270225A1, “Chiral Diacylhydrazine Ligands for Modulating the Expression of Exogenous Genes via an Ecdysone Receptor Complex” (Intrexon Corporation, priority 2007, published 2020).

What was measured:
[1] = Solubility in aqueous polysorbate 80, Assay 4; format: physicochemical
Source text: Equilibrium solubility in formulation excipients and biological fluids influences drug bioavailability, although kinetics of dissolution may also be a limiting factor in determining bioavailability. The solubilities of R enantiomer and racemate of 2-ethyl-3-methoxy-benzoic acid N′-(1-tert-butyl-butyl)-N′-(3,5-dimethyl-benzoyl)-hydrazide were established quantitatively in aqueous preparations of the pharmaceutical surfactant polysorbate 80 and then the intrinsic dissolution rate of compacted test substance was observed. Mixtures of racemate and R enantiomer in 0.5%, 1%, and 1.5% polysorbate 80 solutions were prepared by addition of 20+/−1 mg test substance in a 2 mL Eppendorf vial, followed by 500 mg polysorbate solution. The mixture was bead-beaten for 120 second, shaken at 25° C. for 16 to 24 hours, and filtered using a Spin-X (0.2 μM). The pH of the filtrate was recorded. The concentration of test substance in the filtrate was measured by quantitative HPLC analysis (FIG. 12). The R enantiomer is 2-3× more soluble in 1.0 and 1.5% polysorbate 80 solutions.

[2] = Solubility in pharmaceutical excipients, Assay 1 (qualitative); format: physicochemical
Protocol: The solubility of micronized R enantiomer and racemate of 2-Ethyl-3-methoxy-benzoic acid N′-(1-tert-butyl-butyl)-N′-(3,5-dimethyl-benzoyl)-hydrazide was assessed qualitatively in commercially-available excipients (FIG. 9). Initial solutions/suspensions of 10 mg/g (test article/excipient) in glass vials were prepared by sonication at room temperature for 15 minutes with swirling for 30 seconds at 5 minute intervals, followed by heating in an aluminum block at 50° C. for 12 minutes with swirling for 30 seconds at 3 minute intervals. Based on the appearance of this initial 10 mg/g excipient sample, a 2-4 point concentration continuum was scanned by up or down sampling at several of the following points: 5, 10, 15, 20, 30, 50 mg/g (test article/excipient). […] Photos of several of the preparations in clear glass vials were taken (not shown).

Microsomal metabolism = format: in vitro ADME, human; settings: 5 μM, 1.0 mg/mL microsomal protein, 1 mM NADPH, 60 minutes
Protocol: The test compounds were prepared as 5 μM solutions in DMSO (concentration less than 0.25%), methanol, or acctonitrile. Mixed gender human liver microsomes were pooled from a ≥10 donors, and incubated with 1 mM NADPH. The test compound was incubated at 37° C. in buffer containing 1.0 mg/mL of microsomal protein with 1 mM NADPH. At 0 and 60 minutes, the mixture was sampled and monitored by LC/MS/MS for the peak area corresponding to the test compound, with the range of 10-100%. The assay was run in duplicate (N=2 separate incubations). The data reported in FIG. 15 is percent remaining of testosterone standard and percent remaining of the test compound.

B16 melanoma = test: Anti-tumor efficacy with intratumoral transduced DCs in B16 melanoma mouse model; format: in vivo, C57/BL6 mice
Protocol: A comparative analysis of various administration routes and doses of (R)-2-ethyl-3-methoxy-benzoic acid N′-(1-tert-butyl-butyl)-N′-(3,5-dimethylbenzoyl)-hydrazide on the anti-tumor efficacy of intra-tumorally delivered DCs transduced with an adenoviral vector encoding murine interleukin-12p70 (DC-SP1(IL-12p70)) were carried out in a B16 melanoma mouse model. […] Optimal anti-tumor effects occurred at ≥30 mg/kg (R)-2-ethyl-3-methoxy-benzoic acid N′-(1-tert-butyl-butyl)-N′-(3,5-dimethyl-benzoyl)-hydrazide dose administered with (DC-SP1(IL-12p70)) therapy.
This drug dependent effect was associated with: transgene expression in the tumor and DLN; prolonged Ad-DCs survival in the tumor microenvironment; migration and persistence of AdDCs in the DLN; and induction of anti B16 CD8+ T cells.
When tumor-free animals were re-challenged, on day 50 (post-initial tumor inoculation), these animals were refractory to B16 melanoma, but not MC38 colon carcinoma, progression.

CCC[C@@H](N(NC(=O)c1cccc(OC)c1CC)C(=O)c1cc(C)cc(C)c1)C(C)(C)C [Example 1, (R)-3,5-Dimethyl-benzoic Acid N-(1-tert-butyl-butyl)-N′-(2-ethyl-3-methoxy-benzoyl)-hydrazide]
solubility relative to racemate ([1]; 1.0 and 1.5% polysorbate 80 solutions, 25° C.): 2-3 ×
solubility of racemate and R enantiomer compared ([1]; deionized water and 0.5% polysorbate 80): comparable
solubility in pharmaceutical excipients (qualitative) ([2]; all tested excipients except neat polysorbate 80, 5-50 mg/g): more soluble than racemate
solubility in neat polysorbate 80 (qualitative) ([2]; neat polysorbate 80): comparably soluble
stability to metabolism in human liver microsomes, compared (Microsomal metabolism): slightly more stable
protective immunity on tumor re-challenge (B16 melanoma; 10^7 AdDCs plus 13 day ligand treatment, re-challenge day 50): protective immunity that was tumor-specific
tumor regression and animal survival (B16 melanoma; intratumoral AdDCs carrying murine IL-12, systemic ligand within 48 hours following AdDCs injection): complete regression of tumor and prolonged animal survival
dose for optimal anti-tumor effects (B16 melanoma; with DC-SP1(IL-12p70) therapy): ≥ 30 mg/kg
anti-tumor efficacy (B16 melanoma; with DC-SP1(IL-12p70) therapy, i.p. injection, oral gavage or diet admix): anti-tumor efficacy was demonstrated
